Data from a melting point compilation (Tetko et al.; mined from patent text by program, amines drawn as free bases though some values may be those of a salt).
Residues, ends and D or L forms follow the SMILES beside them. *: point of attachment. Boc = CC(C)(C)OC(=O)*

melting point | SMILES
130 to 133 °C | COC(=O)c1cccc2nnsc12
207 to 210 °C | CSc1ccc(-c2c(NN)nc(NN)nc2-c2ccccc2)cc1
153 to 155 °C | CCc1c(-c2ccc(OC)cc2)c2c(C(=O)OC)c(C(=O)OC)c3cc(OC)cc1n32
88 to 90 °C | O=C(c1ccccc1)c1ccc(OCc2cccnc2)cc1O
200 to 204 °C | CN(C)c1cccc(-c2nc3c(N[C@H]4[C@@H](C(N)=O)[C@@H]5C=C[C@H]4C5)ccnc3[nH]2)c1
214 to 216 °C | CCCc1c(OCc2ccccc2C(=O)O)ccc(C(C)=O)c1O
> 300 °C | CN(C)c1ccc2nc(-c3csc4ccccc34)[nH]c(=O)c2c1
86 to 88 °C | Nc1ccc(-c2cc3ccccn3c2C(=O)CCC(=O)O)cc1
256 to 258 °C | O=C1Nc2cccc(I)c2/C1=C/c1ccc[nH]1
150 to 154 °C | O=C(c1ccc(-c2ccccn2)s1)N1CCCCc2sccc21
141 to 143 °C | O=C(O)c1cc2cc(Cl)c(Cl)cc2nc1N[C@@H](Cc1ccccc1)C(=O)O
75 to 76 °C | ClCc1cncc(-c2ccccc2)c1
132 to 134 °C | CN(c1cc(OCC(=O)O)cc2cc(C3=NCC(CN4CCSCC4)S3)[nH]c12)S(=O)(=O)c1ccccn1 (configuration not stated)
164 to 168 °C | O=C(SCC(=O)N1c2ccccc2CCC1C(=O)O)c1ccccc1 (configuration not stated)
205 to 206 °C | O=C(O)C1=Cc2cc(Cl)c(Oc3ccc(Cl)cc3)cc2OC1C(F)(F)F (configuration not stated)
167 to 168 °C | O=C1CCCC1n1nc(-c2c(-c3ccccc3)nn3ccccc23)ccc1=O (configuration not stated)
149 to 150 °C | O=C(Cc1ccc(-c2ccc(F)cc2F)c(F)c1)NO
> 230 °C | O=C(O)Cn1c(=O)c(=O)[nH]c2cc([N+](=O)[O-])c(-n3ccc(CN4CCN(Cc5ccccc5)CC4)c3)cc21
225 to 228 °C | Cc1nc(-n2cccc(O)c2=O)sc1C(=O)NCc1ccccc1
61 to 64 °C | COC(=O)c1cc(OCCCCCCCCCCCCOc2ccccc2)ccc1O
152 to 154 °C | COc1ccc2c(c1)C(=O)C(Cc1cccc(NS(=O)(=O)C(F)(F)F)c1)CC2 (configuration not stated)
112 to 115 °C | CC(C)(C)OC(=O)N[C@@H](Cc1ccc(C(=N)NC(=O)OCc2ccccc2)cc1)C(=O)O
154 to 156 °C | COc1cc(NC(C)CCCN2C(=O)c3ccccc3C2=O)c2nccc(C=Cc3cccc(C(F)(F)F)c3)c2c1 (configuration not stated)
141 °C | O=C(O)CCCc1cc2nc(Cl)ccc2n1S(=O)(=O)c1ccc(-c2cccnc2)cc1
259 to 260 °C | CCCC(=O)NCc1ccc(NC(=O)/C=C/c2cnn(C)c2-c2ccc(F)cc2)cc1
68 to 70 °C | OCc1ccc(C=Cc2csc3ccccc23)s1

melting point | SMILES
178 to 180 °C | COc1ccc(C(=O)c2cc(F)ccc2F)c(O)c1Cl
205 to 207 °C | CNc1nc(-c2cccc(NC(=O)C3CC3)c2)c2cc(OC)c(OC)cc2n1
100 to 104 °C | CC(C)(C)c1cc(C(=S)SC(C)(C)c2ccccc2)cc(C(C)(C)C)c1O
208 to 211 °C | COc1ccc(CNC(=O)c2cc3c(=O)n(CCC(=O)c4ccccc4)c(=O)n(C)c3s2)cc1
65 to 67 °C | CCCCCCCc1ccccc1C=CC(=O)c1ccc(OCC=C(C)C)cc1O
197 to 198 °C | CC(C)(C)OC(=O)c1sc(Nc2ccc(Cl)cc2)c2c1CCc1cnoc1-2
180 °C | COc1ccc(CN(C)CCCOc2ccc(NC(=O)c3cccc4c(=O)c5cccc(OC)c5[nH]c34)cc2)cc1OC
151 to 153 °C | COc1ccc2sc(C(N)=O)c(SCc3ccccc3)c2c1
176 to 178 °C | COc1cccc2c1C(CC(C)=O)NC2=O (configuration not stated)
116 to 119 °C | Cc1oc2c(OC(C)C(N)=O)cccc2c1C (configuration not stated)
157 to 160 °C | COc1cccc(NC(=O)NCc2ccc(Nc3n[nH]c4ncnc(Nc5cccc(Cl)c5)c34)cc2)c1
91.5 to 94 °C | CCOC(=O)C(C=O)Cc1ccc(OC)nc1 (configuration not stated)
99 to 102 °C | CN1C(=N)C(=O)c2ccccc21
219 to 220 °C | O=c1ccn(-c2ccc(Cl)cc2)nc1-c1ccnn1-c1ccccc1
137 to 139 °C | O=C1C=C(Br)C(CBr)(NCc2ccccc2)O1 (configuration not stated)
165 to 167 °C | COC(COC(=O)C1=C(C)NC2=C(C(=O)CNC2)C1c1cccc(Cl)c1)c1ccccc1 (configuration not stated)
336 to 339 °C | Nc1ccc2c(=O)n3c(nc2c1)C(=Cc1ccc(C(=O)O)cc1)CC3
176 to 177 °C | CCOC(=O)c1cc2cc(OCCCS(C)(=O)=O)cc(N(C)S(=O)(=O)c3ccccn3)c2[nH]1
215 to 217 °C | O=c1[nH]c(-c2ccccn2)c(I)c(=O)n1-c1ccc(OC(F)(F)F)cc1
275 to 277 °C | Oc1ccc2c(-c3ccc4c(O)cccc4c3)noc2c1
90 to 92 °C | COc1ccc2c(c1)c(CC(=O)O)c(C)n2C(=O)c1cccc(Cl)c1
141 to 142 °C | Cc1ccc(-c2cc(F)c(F)cc2-c2ccc(S(C)(=O)=O)cc2)cn1
119 to 120 °C | CCCCC(O)c1cn(C(c2ccccc2)(c2ccccc2)c2ccccc2)cn1 (configuration not stated)
67 to 70 °C | Cc1ccc2c(cc(CCCC(=O)O)n2S(=O)(=O)c2ccc3ncsc3c2)n1
130 °C | O=C(NCC1CC1)C(c1ccccc1)c1ccccc1

Continued, compound first:

SMILES | melting point
CCCCCCCCCCCCCCCCCCSc1ccc(C)cc1 | 54 to 55 °C
NC1N=C(Cl)C=C(Cl)N1c1c([N+](=O)[O-])cc([N+](=O)[O-])cc1C(F)(F)F (configuration not stated) | 170 to 173 °C
Clc1cccnc1N1CCN(c2nc3ccc(Br)cc3[nH]2)CC1 | 207 to 208 °C
NS(=O)(=O)c1cccc(NC(=O)Nc2c(F)c(F)c(F)c(F)c2F)c1 | 224 to 227 °C
CCOC(=O)C1(Cc2cccnc2)CCCN(C(=O)c2ccc(Nc3nccc(Nc4ccc(F)cc4)n3)cc2)C1 (configuration not stated) | 119 °C
CCOC1CC2(C)C(CCC3C4CC=CC4(C)CC(N(C)C)C32)CC1O (configuration not stated) | 51 to 54 °C
COC(=O)CC(=O)c1nccn1C | 142 to 143 °C
OCC1OC(n2cnc3c(NCc4ccc(Br)cc4)ncnc32)C(O)C1O (configuration not stated) | 179 °C
COc1c(Cl)ccc(-c2nc(C=O)c(Cl)c(N)c2F)c1F | 192 to 196 °C
CCN1CC(=O)C(C#N)=C1N | 278 to 280 °C
FC(F)(F)Sc1ccc(/C=C/c2nc(COc3ccc(-c4nc(Cn5ccnc5)co4)cc3)co2)cc1 | 144 to 145 °C
COC(=O)/C=C/COc1cc(-n2ncc(C(F)(F)F)c(C)c2=O)c(F)cc1Cl | 153 °C
CN(Cc1ccccc1C(F)(F)F)C1CCN(c2ccc(OC[C@@]3(C)Cn4cc([N+](=O)[O-])nc4O3)cc2)CC1 | 190 °C
CCn1cc(C(=O)O)c(=O)c2cc(F)c(N3CCN(C(C)=O)CC3)cc21 | 300 °C
Cc1cc(C2CC2)nc(NN)n1 | 98 to 99 °C
CC(=O)OCCCN(C)CCN(C)C(=O)[C@@H]1CCCN1S(=O)(=O)c1ccc(Cl)c(COc2cccc3c(-n4ccnc4)cc(C)nc23)c1Cl | 75 °C
Cc1cc(F)cc2c1CC/C2=C\C(=O)O | 243 to 246 °C
O=C(NC(=O)N(SN1CCCC1=O)c1ccc(Oc2ccc(C(F)(F)F)cc2Cl)cc1F)c1c(F)cccc1F | 125 to 126 °C
CS(=O)(=O)c1ccc(C(CC2CCCC2)C(=O)Nc2ccc(C(=O)O)cn2)cc1 (configuration not stated) | 191 to 193 °C
CC(=O)OC1Oc2ccc(C#N)cc2C1(C)C (configuration not stated) | 138 to 140 °C
O=C(Nc1ccccc1C(F)(F)F)ONC1=Nc2ccc(Cl)cc2C(c2ccccc2)=NC1 | 190 °C
N#Cc1cc2c(cc1F)OCC21C(=O)Nc2ccccc21 (configuration not stated) | 222 to 224 °C
CN1Cc2cncn2C(c2ccc(Br)cc2)C1=O (configuration not stated) | 143 to 144 °C

SMILES | melting point
NP(N)(=O)NC(=O)C=Cc1ccccc1 | 176 to 178 °C
Cc1nc(-c2ccc(OC(C)C)c([N+](=O)[O-])c2)sc1C(=O)OC(C)C | 91 to 92 °C
CCCC1CC2=CC(=O)CCC2C2CCC3(C)C(OC(C)=O)CCC3C12 (configuration not stated) | 97 to 100 °C
Cc1cccc(Cl)c1C=NS | 143 °C
CC(C)(C)OC(=O)N1CCN(C(=O)SCc2ccc(O[Si](C)(C)C(C)(C)C)cc2)CC1 | 53 to 54 °C
CSCCC(NC(=O)C(CC(C)C)NC(=O)CNC(=O)C(NC(=O)C(Cc1ccccc1)NC(=O)C(C)NC(=O)OC(C)(C)C)C(C)C)C(=O)O (configuration not stated) (Boc-AFVGLM-OH; configuration not given here) | 252 to 281 °C
Cc1cc(Cc2cnc(NCCCCc3ncc(Br)cc3C)[nH]c2=O)cnc1CO | 136 to 141 °C
Nc1cccc2c3c([nH]c12)C(=O)CCC3 | 233 to 234 °C
O=C(O)C1=Cc2cc(F)c(N3CCC4(CC3)OCCCO4)nc2N(c2ccc(F)cc2F)C1 | 177 to 178 °C
Cc1cc(NC(=O)Nc2cccc3c2C2CCCCN2C3=O)no1 (configuration not stated) | 156 °C
CC(C)c1cc(C(C)C)c(S(=O)(=O)n2cc3c4c(cccc42)C(=O)CC3)c(C(C)C)c1 | 124 to 130 °C
CC(C)(C)[Si](C)(C)OCc1cc(-c2ccc3nc(Cl)cn3c2)cs1 | 100 to 104 °C
O=c1[nH]c(=O)n2c3c1cnn3C(c1cccnc1)=CC2 | 292 to 295 °C
CSC(=NCCSCc1ccc(CN(C)C)o1)NC#N | 78 to 79 °C
CC1OC(n2cc(F)c(NC(=O)c3ccc(Cl)cc3)nc2=O)C(O)C1O (configuration not stated) | 142 to 146 °C
Cc1nsc(OCC(F)(F)F)c1S(N)(=O)=O | 148 to 149 °C
Clc1ccc2c(c1)NCc1ccccc1S2 | 125 to 127 °C
CC1(C)C=C(c2cc(C#N)ccc2O)c2cc(C#N)ccc2O1 | 213 to 215 °C
CC1O[C@@](Cn2cncn2)(c2ccc(Cl)cc2Cl)[C@@H](C)N1S(C)(=O)=O (relative stereo) | 160 to 170 °C
COCc1nc(C(C)(C)O)c(C(=O)OC)[nH]1 | 94.5 to 96 °C
Cc1cc(-c2cc(C(F)(F)F)nn2-c2ccc(S(N)(=O)=O)cc2)ccc1-c1cocn1 | 112 to 114 °C
C#CCNC(=O)N1CC(c2ccc(Cl)c(Cl)c2)C1 | 106 to 108 °C
CN1CCC[C@@H]1Cc1c[nH]c2ccc(C=CC(C)(C)O)cc12 | 155 to 158 °C
